Series [1] concerns Escherichia coli (ATCC 8739). It counts as cell-based. The note with it: ATCC 8739. From the text:
The Gram-positive strains Enterococcus faecalis (ATCC 29212), Staphylococcus aureus (HNCMO112011), and Listeria monocytogenes (ATCC 19111), and the Gram-negative strains Pseudomonas aeruginosa (ATCC 27853), Escherichia coli (ATCC 8739), Salmonella enterica (ATCC 13076), Klebsiella pneumoniae (NCTC 13440), and Acinetobacter baumannii (ATCC 17978) were obtained from ATCC (United States) and NCTC (National Collection of Type Cultures – England).
Minimal bactericidal concentrations (MBC) of peptides and reference antibiotics were determined in 20 mM potassium phosphate buffer (PPB, pH 7.4) and Mueller–Hinton broth (MHB) as described by ([Jenei et al., 2020]). Briefly, bacterial cultures were grown to mid-log phase, washed, adjusted to OD₆₀₀ = 0.1 (∼10⁷ CFU/mL), added 10 μl of it into 100 μl mixture and incubated in 96-well plates with 2-fold serial dilutions of peptides or antibiotics. After incubation at 37 °C with shaking, bacterial viability was assessed by plating 5 μL aliquots on LB agar. MBC was defined as the lowest concentration yielding no colony growth. […]
Three biological replicates were treated at OD600 = 0.2 with a final concentration of 1.6 µM NCR169C17–38 peptide for 20 min, while the control samples were treated with the same amount of water for 20 min. […] Quality and quantity was detected using 2200 TapeStation (Agilent) and Qubit RNA BR Assay […]

In another series the test system is E. coli. The experiment in a line: Real-time PI uptake. The series is classed as cell-based, Escherichia coli. The protocol: To monitor PI uptake in real time, 10 µl of E. coli suspension (OD₆₀₀ = 0.1, prepared as described above) was mixed with 90 µl of PPB containing a two-fold serial dilution of NCR169C17–38 (12.5 µM to 0.8 µM) or polymyxin B (0.8 µM), along with 200 ng/ml PI. Fluorescence was recorded using a Hidex Sense Microplate Reader (software version 5064) with excitation and emission wavelengths set at 535 nm and 617 nm, respectively. Experiments were repeated three times.
To get a more precise assessment of how rapidly NCR169C17–38 induces membrane damage, we monitored PI uptake in real time. E. coli was treated in a microtiter plate with two-fold dilutions of NCR169C17–38 (12.5 - 0.8 µM) and PI fluorescence was measured using a plate reader (Fig. 2.C). For comparison, polymyxin B, a well-known membrane-permeabilizing/damaging antibiotic, was included as a control. A rapid rise in fluorescence within 1–2 min was observed upon exposure to NCR169C17–38 at MBC or higher concentrations, indicating swift membrane permeabilization.

The subject of a further series is S. aureus. It counts as cell-based, Staphylococcus aureus. To be noted: 8 h. As to the method:
For serum stability test human blood was purchased from the Regional Blood Centre in Szeged (the use of human blood has been authorized by the Regional Hungarian Ethics Committee and approved by the Ethics Review Sector of DG RTD (European Commission) in connection with EK’s ERC AdG SymBiotics). The cells from 10 ml of EDTA-blood were centrifuged at 1500 × g for 1 min and washed several times in TBS buffer (10 mM Tris, pH: 7.2, 150 mM NaCl) until the supernatant, representing the serum, became colorless. The NCR169C17–38 peptide was added to the serum at 1:1 ratio and incubated at room temperature for 8 h. Subsequently, serial 2-fold dilutions of the peptide were prepared in PPB, with concentrations ranging from 100 to 0.2 µM and antimicrobial assay was done to determine the MBC values. Experiments were done in three biological replicates.

The subject of series [2] is HindIII-digested lambda phage DNA. As to the kind of experiment: Real-time DNA binding by SYBR Gold fluorescence. To be noted: 100 ng DNA, 10 µM peptide added at 0 or 14 min, room temperature. The protocol: In addition, DNA-binding kinetics were monitored in real time using a Hidex Sense plate reader at room temperature in three independent experiments. Reaction mixtures contained 100 ng of HindIII-digested lambda phage DNA in 1 × SYBR Gold (Thermo Scientific), either without peptide or with 10 µM of NCR169C17–38 (2.74041 µg), NCR169 (4.56545 µg), NCR169_16–27 (1.56597 µg), or NCR169_17–27 (1.40279 µg). Peptides were added either at the start (0 min) or at 14 min. Fluorescence from DNA-bound SYBR Gold was measured every 3 min (excitation 490 nm, emission 535 nm). At 27 min, proteinase K (1 mg/ml; 100 µg final) was added to peptide-treated samples to assess the effect on peptide–DNA binding. Experiments were done in three biological replicates.
The DNA-binding kinetics were quantified using SYBR Gold fluorescence (Fig. 3.D). […] To test if peptide removal would recover the DNA–SYBR Gold fluorescence to control values, Proteinase K was added at 27 min to all reactions. […] In contrast, fluorescence values in the NCR169 samples remained unchanged, while those of NCR169C17–38 or NCR169_17–27 increased slightly and gradually to the same limited extent.

Values after ≈ are worked out from the molar mass of the structure shown. Residues, ends and D or L forms follow the SMILES beside them.

For orientation: MBC means the smallest concentration meeting the test's criterion for killing. Read a high MBC as weaker bactericidal potency. `CC[C@H](C)[C@H](NC(=O)[C@H](CCCCN)NC(=O)[C@H](Cc1ccccc1)NC(=O)[C@H](CC(C)C)NC(=O)[C@@H]1CCCN1C(=O)[C@H](CCCCN)NC(=O)[C@H](CCCCN)NC(=O)[C@H](CO)NC(=O)[C@@H](N)CCCCN)C(=O)N[C@@H](Cc1c[nH]c2ccccc12)C(=O)N[C@@H](CCCCN)C(=O)N[C@@H](CS)C(=O)N[C@H](C(=O)N[C@@H](CCC(=O)O)C(=O)N[C@@H](CC(N)=O)C(=O)N[C@H](C(=O)N[C@@H](CS)C(=O)N[C@H](C(=O)N[C@@H](CC(C)C)C(=O)N[C@@H](Cc1c[nH]c2ccccc12)C(=O)N[C@@H](Cc1ccc(O)cc1)C(=O)N[C@@H](CCCCN)C(N)=O)C(C)C)C(C)C)C(C)C` [NCR169C17–38] (H-KSKKPLFKIWKCVENVCVLWYK-NH2; N-terminus assumed) yielded an MBC in series [1] of 6.2 µM (≈ 17 µg/mL). Also, in the series with E. coli (E. coli in PPB, peptide at MBC or higher concentrations (12.5-0.8 µM tested), 200 ng/ml PI), the “time to rapid rise in PI fluorescence” value lay within 1 to 2 min. The “PI uptake kinetics compared at respective MBC values” in the series on E. coli (E. coli, polymyxin B 0.8 µM as control) was “more rapidly and effectively than polymyxin B”. The “MBC after pre-incubation in human serum” value in the series with S. aureus amounted to 3.1 µM (≈ 8.49 µg/mL). For the same compound, in series [2], the “extent of SYBR Gold fluorescence signal reduction (hierarchy)” value was “NCR169C17–38 > NCR169 > NCR169_16–27 > NCR169_17–27”.

These data come from paper PMC12811501, “A plant-derived antimicrobial peptide with multiple mechanisms of action exhibiting antibacterial and antibiofilm activities comparable to or superior to polymyxin B” (Current Research in Microbial Sciences, 2025).
